± gives the standard deviation of the averaged measurements.
Experiments:
[1] = test system: U-2 OS; assay: intracellular GSH:GSSG ratio (calculated); higher = more reduced glutathione pool; conditions: 24 h
Method: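 Intracellular glutathione in U-2 OS cells after 24 h compound treatment at 5, 10 and 20 uM (some at 40 and 80 uM). Total glutathione and GSSG were measured with the GSH/GSSG-Glo kit, and the GSH:GSSG ratio was calculated. Mean of five technical replicate plates.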

[2] = test system: U-2 OS; assay: total intracellular glutathione (GSH + GSSG) relative to DMSO (% of control); higher = more glutathione; conditions: 24 h
Method: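 Total intracellular glutathione (GSH + GSSG) in U-2 OS cells by GSH/GSSG-Glo after 24 h compound treatment at 5, 10 and 20 uM (some at 40 and 80 uM), as percent of DMSO control. Five technical replicate plates, averaged.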

[3] = test system: U-2 OS; assay: cell viability (CellTiter-Glo) relative to DMSO (% of control); higher = more viable; conditions: 24 h
Method: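 Cell viability of U-2 OS cells by CellTiter-Glo after 24 h compound treatment at 5, 10 and 20 uM (some at 40 and 80 uM), measured in parallel with the glutathione assay, as percent of DMSO control. Five technical replicate plates, averaged.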

[4] = test system: U-2 OS; assay: AUC of culture confluence over time (live-cell imaging) (AUC (confluence % x time)); higher = more confluent culture (less growth inhibition)
Procedure, shortened: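 Using an Incucyte S3 with a 10x objective, confluence of U-2 OS cells was imaged every 4 h for up to 60 h at 37 °C. The cells had been seeded at 750 per well in 384-well plates in F-12K medium with 10% FBS and treated by pin tool 24 h later, most compounds at 20, 10 and 5 μM with 0.2% DMSO. The value given is the area under the confluence-versus-time curve.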

[5] = test system: U-2 OS; assay: relative cell count vs DMSO (cell painting) (fraction of DMSO control); higher = more cells remaining (less cytotoxic); conditions: 24 h
Procedure, shortened: (§1)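 In this cell painting assay, roughly 1,500 U-2 OS cells per well in 384-well plates were pin-tool treated at 37 °C for 24 h, typically at six 2-fold steps from 20 μM down to 625 nM. Cells were stained with MitoTracker, concanavalin A, phalloidin, wheat germ agglutinin, Hoechst and SYTO 14, imaged on an Opera Phenix, and analysed in CellProfiler with normalization to same-plate DMSO cells. Reported values are means of four replicate plates, with the activity score defined as the Mahalanobis distance from DMSO wells and cell count defined relative to DMSO wells.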

[6] = test system: U-2 OS; assay: cell painting activity score (Mahalanobis distance from DMSO wells); higher = stronger morphological phenotype; conditions: 24 h
Procedure, shortened: as §1

SMILES | intracellular GSH:GSSG ratio ([1]; 5 µM) | intracellular GSH:GSSG ratio ([1]; 10 µM) | intracellular GSH:GSSG ratio ([1]; 20 µM) | intracellular GSH:GSSG ratio ([1]; 40 µM) | intracellular GSH:GSSG ratio ([1]; 80 µM) | total intracellular glutathione ([2]; 5 µM) | total intracellular glutathione ([2]; 10 µM) | total intracellular glutathione ([2]; 20 µM) | total intracellular glutathione ([2]; 40 µM) | total intracellular glutathione ([2]; 80 µM) | cell viability ([3]; 5 µM) | cell viability ([3]; 10 µM) | cell viability ([3]; 20 µM) | cell viability ([3]; 40 µM) | cell viability ([3]; 80 µM) | AUC of culture confluence over time ([4]; 5 µM) | AUC of culture confluence over time ([4]; 10 µM) | AUC of culture confluence over time ([4]; 20 µM) | AUC of culture confluence over time ([4]; 40 µM) | AUC of culture confluence over time ([4]; 80 µM) | relative cell count ([5]; 0.625 µM) | relative cell count ([5]; 1.25 µM) | relative cell count ([5]; 2.5 µM) | relative cell count ([5]; 5 µM) | relative cell count ([5]; 10 µM) | relative cell count ([5]; 20 µM) | relative cell count ([5]; 40 µM) | relative cell count ([5]; 80 µM) | cell painting activity score ([6]; 0.625 µM) | cell painting activity score ([6]; 1.25 µM) | cell painting activity score ([6]; 2.5 µM) | cell painting activity score ([6]; 5 µM) | cell painting activity score ([6]; 10 µM) | cell painting activity score ([6]; 20 µM) | cell painting activity score ([6]; 40 µM) | cell painting activity score ([6]; 80 µM)
Cc1cc2c(C(C)C)c(O)c(O)c(C=O)c2c(O)c1-c1c(C)cc2c(C(C)C)c(O)c(O)c(C=O)c2c1O | 16.4 | 15.8 | 7.02 | 3.8 | 1.25 | 92.2 ± 3.2 | 70 ± 4.9 | 63.3 ± 3.2 | 62.8 ± 3.7 | 18.2 ± 4.2 | 96.4 ± 1.8 | 88.1 ± 5.2 | 68.2 ± 2.1 | 42.7 ± 11 | 5.12 ± 1.6 | 48.5 | 36.2 | 32.6 | 18.2 | 18.5 | 1.09 | 1.1 | 1.09 | 1.02 | 0.937 | 0.551 | 0.246 | 0.261 | 3.83 | 4.24 | 4.3 | 5.05 | 15.5 | 17.8 | 22.1 | 24.1
COc1ccc(N2C(=O)CC(Sc3nnc(-c4ccccc4)o3)C2=O)cc1 (stereo unspecified) | 26.4 | 14.5 | 4.1 |  |  | 97.4 ± 5.6 | 97.1 ± 17 | 20 ± 8 |  |  | 105 ± 6.2 | 91.8 ± 19 | 9.21 ± 6.6 |  |  | 24.5 | 11.3 | 11.9 |  |  | 1.1 | 1.07 | 1.16 | 1.08 | 1.1 | 0.796 |  |  | 2.96 | 3.59 | 3.44 | 4.49 | 6.07 | 11.5 |  | 
Cn1c(=O)n(-c2ccc(C(C)(C)C#N)cc2)c2c3cc(-c4cnc5ccccc5c4)ccc3ncc21 | 23.9 | 22.6 | 29.4 |  |  | 71.3 ± 4.7 | 70.8 ± 2.6 | 68.2 ± 2.1 |  |  | 68.1 ± 3.9 | 62.4 ± 1.9 | 63.2 ± 3.4 |  |  | 31.4 | 28.4 | 27.6 |  |  | 0.853 | 0.819 | 0.802 | 0.83 | 0.788 | 0.765 |  |  | 11.8 | 12.3 | 12.8 | 12.8 | 12.6 | 12.8 |  | 
Cc1cc(-c2ccccc2)cc(C(=O)NNS(=O)(=O)c2ccccc2)c1F | 37 | 26 | 29 |  |  | 124 ± 13 | 109 ± 5.4 | 110 ± 4.2 |  |  | 109 ± 6 | 101 ± 7.7 | 98.9 ± 2.5 |  |  | 52.8 | 51.6 | 46.7 |  |  | 0.914 | 0.965 | 0.931 | 0.965 | 0.952 | 0.966 |  |  | 6.33 | 7.18 | 6.97 | 6.92 | 8.27 | 8.87 |  | 
c1ccc(Nc2nc(-c3ccccc3)ns2)cc1 | 23.1 | 14.2 | 15.3 |  |  | 104 ± 6.9 | 96.4 ± 2.9 | 98.2 ± 2.9 |  |  | 98.7 ± 3 | 95.3 ± 1.7 | 97.7 ± 4 |  |  | 49.5 | 46.8 | 49.1 |  |  | 0.915 | 0.89 | 0.908 | 0.925 | 0.958 | 0.841 |  |  | 4.12 | 4.49 | 4.32 | 5.01 | 9.5 | 11.4 |  | 
CCC(=O)N1CCN(c2ccc(-n3c(=O)ccc4cnc5ccc(-c6cnc7ccccc7c6)cc5c43)cc2C(F)(F)F)CC1 | 16.1 | 15 | 13.4 |  |  | 58.8 ± 4.2 | 58.6 ± 4.8 | 64 ± 3.3 |  |  | 66.4 ± 3.2 | 66.8 ± 3.4 | 61.4 ± 4 |  |  | 26.9 | 27.2 | 26.1 |  |  | 0.752 | 0.716 | 0.68 | 0.714 | 0.683 | 0.656 |  |  | 12.8 | 12.6 | 12.4 | 13.4 | 13.2 | 14.2 |  | 
COc1ccc(/C(Cl)=C(\C=O)c2ccc(OC)cc2)cc1 | 20.2 | 16.5 | 15.7 | 7.85 | 9.31 | 125 ± 6.9 | 125 ± 4.8 | 111 ± 2.4 | 76.7 ± 2.6 | 79.8 ± 4.3 | 101 ± 3.7 | 102 ± 3.2 | 99.8 ± 6.2 | 77.1 ± 5 | 69.9 ± 4.5 | 45.3 | 38.1 | 35.7 |  |  | 1 | 0.996 | 1.01 | 0.987 | 0.98 | 0.996 |  |  | 6.88 | 4.52 | 5.61 | 10.1 | 11.3 | 12 |  | 
